Values after ≈ are worked out from the molar mass of the structure shown.
Assay: Solubility in PBS
Assay type: physicochemical
Settings: for solubility at 15 min: Solubility (uM)
Description: After ultracentrifugation of the PBS solution, the supernatant was analyzed by HPLC and compared to an HPLC injection 50 μM peptide DMSO solution. Solubility was determined by: [(Area of PBS peak)/(Area of DMSO peak)]*50 uM.

solubility at 15 min	Solubility	Structure (SMILES)
26 µM (≈ 51.4 µg/mL)		COc1ccccc1C[C@H](NC(=O)[C@]12CCN(C1)C(=O)OCCCC=CCCCC1(CCCC=CC[C@]3(CCCN3C(C)=O)C(=O)N[C@@H](CC(=O)O)C(=O)N[C@@H](CC(C)(C)C)C(=O)N1)C(=O)N[C@@H](CC(=O)O)C(=O)N[C@@H](CC(=O)O)C(=O)N[C@@H](C)C(=O)N[C@@H](C)C(=O)N[C@@H](Cc1ccccc1)C(=O)N[C@@H](Cc1ccccc1)C(=O)N2)C(=O)N[C@@H](Cc1csc2ccccc12)C(=O)N[C@@H](CCC(N)=O)C(N)=O (stereo partly drawn) [I-1328, PL3-Asp-Npg-B5-Asp-Asp-Ala-Ala-Phe-Phe-PyrS2-2OMeF-BztA-Gln-NH2]
45 µM (≈ 86.3 µg/mL)		CC(=O)N1CCC[C@]12CC=CCCCC1(CCCC=CCCCOC(=O)N3CC[C@@](C(=O)N[C@@H](CC4CCCCC4)C(=O)N[C@@H](Cc4csc5ccccc45)C(=O)N[C@@H](CCC(N)=O)C(N)=O)(C3)NC(=O)[C@H](CC(N)=O)NC(=O)[C@H](Cc3ccccc3)NC(=O)[C@H](C)NC(=O)[C@H](C)NC(=O)[C@H](CC(=O)O)NC(=O)[C@H](CC(=O)O)NC1=O)NC(=O)[C@H](CC(C)(C)C)NC(=O)[C@H](CC(=O)O)NC2=O (stereo partly drawn) [I-1329, PL3-Asp-Npg-B5-Asp-Asp-Ala-Ala-Phe-Asn-PyrS2-Cha-BztA-Gln-NH2]
	10 µM (≈ 19.5 µg/mL)	CC(=O)N1CCC[C@]12CC=CCCCC1(CCCC=CCCCOC(=O)N3CC[C@@](C(=O)N[C@@H](CC4CCCCC4)C(=O)N[C@@H](Cc4csc5ccccc45)C(=O)N[C@@H](CCC(N)=O)C(N)=O)(C3)NC(=O)[C@H](Cc3ccccc3)NC(=O)[C@H](Cc3ccccc3)NC(=O)[C@H](C)NC(=O)[C@H](C)NC(=O)[C@H](CC(=O)O)NC(=O)[C@H](CC(=O)O)NC1=O)NC(=O)[C@H](CC(C)(C)C)NC(=O)[C@H](CC(=O)O)NC2=O (stereo partly drawn) [I-1331, PL3-Asp-Npg-B5-Asp-Asp-Ala-Ala-Phe-Phe-PyrS2-Cha-BztA-Gln-NH2]
13 µM (≈ 26.3 µg/mL)		CC(=O)N1CCC[C@]12CC=CCCCC1(CCCC=CCCCOC(=O)N3CC[C@@](C(=O)N[C@@H](Cc4ccccc4Cl)C(=O)N[C@@H](Cc4csc5ccccc45)C(=O)N[C@@H](CCC(N)=O)C(N)=O)(C3)NC(=O)[C@H](CC(C)C)NC(=O)[C@H](Cc3ccccc3)NC(=O)[C@H](C)NC(=O)[C@H](C)NC(=O)[C@H](Cc3cccc(C(=O)O)c3)NC(=O)[C@H](CC(=O)O)NC1=O)NC(=O)[C@H](CC(C)(C)C)NC(=O)[C@H](CC(=O)O)NC2=O (stereo partly drawn) [I-1332, PL3-Asp-Npg-B5-Asp-3COOHF-Ala-Ala-Phe-Leu-PyrS2-2C1F-BztA-Gln-NH2]
	10 µM (≈ 19.8 µg/mL)	CC(=O)N1CCC[C@]12CC=CCCCC1(CCCC=CCCCOC(=O)N3CC[C@@](C(=O)N[C@@H](Cc4ccccc4Cl)C(=O)N[C@@H](Cc4csc5ccccc45)C(=O)N[C@@H](CO)C(N)=O)(C3)NC(=O)[C@H](CC(C)C)NC(=O)[C@H](Cc3ccccc3)NC(=O)[C@H](C)NC(=O)[C@H](C)NC(=O)[C@H](Cc3cccc(C(=O)O)c3)NC(=O)[C@H](CC(=O)O)NC1=O)NC(=O)[C@H](CC(C)(C)C)NC(=O)[C@H](CC(=O)O)NC2=O (stereo partly drawn) [I-1333, PL3-Asp-Npg-B5-Asp-3COOHF-Ala-Ala-Phe-Leu-PyrS2-2C1F-BztA-Ser-NH2]
	10 µM (≈ 20.1 µg/mL)	CC(=O)N1CCC[C@]12CC=CCCCC1(CCCC=CCCCOC(=O)N3CC[C@@](C(=O)N[C@@H](Cc4ccccc4C(F)(F)F)C(=O)N[C@@H](Cc4csc5ccccc45)C(=O)N[C@@H](CO)C(N)=O)(C3)NC(=O)[C@H](CC(C)C)NC(=O)[C@H](Cc3ccccc3)NC(=O)[C@H](C)NC(=O)[C@H](C)NC(=O)[C@H](Cc3cccc(C(=O)O)c3)NC(=O)[C@H](CC(=O)O)NC1=O)NC(=O)[C@H](CC(C)(C)C)NC(=O)[C@H](CC(=O)O)NC2=O (stereo partly drawn) [I-1336, PL3-Asp-Npg-B5-Asp-3COOHF-Ala-Ala-Phe-Leu-PyrS2-2F3MeF-BztA-Ser-NH2]
	10 µM (≈ 20.6 µg/mL)	CC(=O)N1CCC[C@]12CC=CCCCC1(CCCC=CCCCOC(=O)N3CC[C@@](C(=O)N[C@@H](Cc4ccccc4Cl)C(=O)N[C@@H](Cc4csc5ccccc45)C(=O)N[C@@H](CCC(N)=O)C(N)=O)(C3)NC(=O)[C@H](Cc3ccccc3)NC(=O)[C@H](Cc3ccccc3)NC(=O)[C@H](C)NC(=O)[C@H](C)NC(=O)[C@H](Cc3cccc(C(=O)O)c3)NC(=O)[C@H](CC(=O)O)NC1=O)NC(=O)[C@H](CC(C)(C)C)NC(=O)[C@H](CC(=O)O)NC2=O (stereo partly drawn) [I-1338, PL3-Asp-Npg-B5-Asp-3COOHF-Ala-Ala-Phe-Phe-PyrS2-2C1F-BztA-Gln-NH2]
	10 µM (≈ 20.1 µg/mL)	CC(=O)N1CCC[C@]12CC=CCCCC1(CCCC=CCCCOC(=O)N3CC[C@@](C(=O)N[C@@H](Cc4ccccc4Cl)C(=O)N[C@@H](Cc4csc5ccccc45)C(=O)N[C@@H](CO)C(N)=O)(C3)NC(=O)[C@H](Cc3ccccc3)NC(=O)[C@H](Cc3ccccc3)NC(=O)[C@H](C)NC(=O)[C@H](C)NC(=O)[C@H](Cc3cccc(C(=O)O)c3)NC(=O)[C@H](CC(=O)O)NC1=O)NC(=O)[C@H](CC(C)(C)C)NC(=O)[C@H](CC(=O)O)NC2=O (stereo partly drawn) [I-1339, PL3-Asp-Npg-B5-Asp-3COOHF-Ala-Ala-Phe-Phe-PyrS2-2C1F-BztA-Ser-NH2]
	10 µM (≈ 20.2 µg/mL)	CC(=O)N1CCC[C@]12CC=CCCCC1(CCCC=CCCCOC(=O)N3CC[C@@](C(=O)N[C@@H](Cc4ccccc4Cl)C(=O)N[C@@H](Cc4csc5ccccc45)C(=O)N[C@H](CO)[C@@H](C)O)(C3)NC(=O)[C@H](Cc3ccccc3)NC(=O)[C@H](Cc3ccccc3)NC(=O)[C@H](C)NC(=O)[C@H](C)NC(=O)[C@H](Cc3cccc(C(=O)O)c3)NC(=O)[C@H](CC(=O)O)NC1=O)NC(=O)[C@H](CC(C)(C)C)NC(=O)[C@H](CC(=O)O)NC2=O (stereo partly drawn) [I-1340, PL3-Asp-Npg-B5-Asp-3COOHF-Ala-Ala-Phe-Phe-PyrS2-2C1F-BztA-Thro1]
44 µM (≈ 84.4 µg/mL)		CC(=O)N1CCC[C@]12CC=CCCCC1(CCCC=CCCCOC(=O)N3CC[C@@](C(=O)N[C@@H](Cc4cccs4)C(=O)N[C@@H](Cc4csc5ccccc45)C(=O)N[C@@H](CCC(N)=O)C(N)=O)(C3)NC(=O)[C@H](CC(C)C)NC(=O)[C@H](Cc3ccccc3)NC(=O)[C@H](C)NC(=O)[C@H](C)NC(=O)[C@H](CC(=O)O)NC(=O)[C@H](CC(=O)O)NC1=O)NC(=O)[C@H](CC(C)(C)C)NC(=O)[C@H](CC(=O)O)NC2=O (stereo partly drawn) [I-1344, PL3-Asp-Npg-B5-Asp-Asp-Ala-Ala-Phe-Leu-PyrS2-2Thi-BztA-Gln-NH2]
37 µM (≈ 72.2 µg/mL)		CC(=O)N1CCC[C@]12CC=CCCCC1(CCCC=CCCCOC(=O)N3CC[C@@](C(=O)N[C@@H](Cc4cccs4)C(=O)N[C@@H](Cc4csc5ccccc45)C(=O)N[C@@H](CCC(N)=O)C(N)=O)(C3)NC(=O)[C@H](Cc3ccccc3)NC(=O)[C@H](Cc3ccccc3)NC(=O)[C@H](C)NC(=O)[C@H](C)NC(=O)[C@H](CC(=O)O)NC(=O)[C@H](CC(=O)O)NC1=O)NC(=O)[C@H](CC(C)(C)C)NC(=O)[C@H](CC(=O)O)NC2=O (stereo partly drawn) [I-1345, PL3-Asp-Npg-B5-Asp-Asp-Ala-Ala-Phe-Phe-PyrS2-2Thi-BztA-Gln-NH2]
	50 µM (≈ 95.6 µg/mL)	CC(=O)N1CCC[C@]12CC=CCCCC1(CCCC=CCCCOC(=O)N3CC[C@@](C(=O)N[C@H](Cc4ccccc4)C(=O)N[C@@H](Cc4csc5ccccc45)C(=O)N[C@@H](CCC(N)=O)C(N)=O)(C3)NC(=O)[C@H](CC(N)=O)NC(=O)[C@H](Cc3ccccc3)NC(=O)[C@H](C)NC(=O)[C@H](C)NC(=O)[C@H](CC(=O)O)NC(=O)[C@H](CC(=O)O)NC1=O)NC(=O)[C@H](CC(C)(C)C)NC(=O)[C@H](CC(=O)O)NC2=O (stereo partly drawn) [I-1346, PL3-Asp-Npg-B5-Asp-Asp-Ala-Ala-Phe-Asn-PyrS2-dPhe-BztA-Gln-NH2]
28 µM (≈ 53.9 µg/mL)		CC(=O)N1CCC[C@]12CC=CCCCC1(CCCC=CCCCOC(=O)N3CC[C@@](C(=O)N[C@@H](CCc4ccccc4)C(=O)N[C@@H](Cc4csc5ccccc45)C(=O)N[C@@H](CCC(N)=O)C(N)=O)(C3)NC(=O)[C@H](CC(C)C)NC(=O)[C@H](Cc3ccccc3)NC(=O)[C@H](C)NC(=O)[C@H](C)NC(=O)[C@H](CC(=O)O)NC(=O)[C@H](CC(=O)O)NC1=O)NC(=O)[C@H](CC(C)(C)C)NC(=O)[C@H](CC(=O)O)NC2=O (stereo partly drawn) [I-1350, PL3-Asp-Npg-B5-Asp-Asp-Ala-Ala-Phe-Leu-PyrS2-hPhe-BztA-Gln-NH2]

Structure (SMILES)	solubility at 15 min	Solubility
CC(=O)N1CCC[C@]12CC=CCCCC1(CCCC=CCCCOC(=O)N3CC[C@@](C(=O)N[C@@H](Cc4ccccc4Cl)C(=O)N[C@@H](Cc4csc5ccccc45)C(=O)N[C@H](CO)[C@@H](C)O)(C3)NC(=O)[C@H](CC(C)C)NC(=O)[C@H](Cc3ccccc3)NC(=O)[C@H](C)NC(=O)[C@H](C)NC(=O)[C@H](Cc3cccc(C(=O)O)c3)NC(=O)[C@H](CC(=O)O)NC1=O)NC(=O)[C@H](CC(C)(C)C)NC(=O)[C@H](CC(=O)O)NC2=O (stereo partly drawn) [I-1334, PL3-Asp-Npg-B5-Asp-3COOHF-Ala-Ala-Phe-Leu-PyrS2-2C1F-BztA-Thro1]		10 µM (≈ 19.8 µg/mL)
CC(=O)N1CCC[C@]12CC=CCCCC1(CCCC=CCCCOC(=O)N3CC[C@@](C(=O)N[C@@H](Cc4ccccc4C(F)(F)F)C(=O)N[C@@H](Cc4csc5ccccc45)C(=O)N[C@@H](CCC(N)=O)C(N)=O)(C3)NC(=O)[C@H](CC(C)C)NC(=O)[C@H](Cc3ccccc3)NC(=O)[C@H](C)NC(=O)[C@H](C)NC(=O)[C@H](Cc3cccc(C(=O)O)c3)NC(=O)[C@H](CC(=O)O)NC1=O)NC(=O)[C@H](CC(C)(C)C)NC(=O)[C@H](CC(=O)O)NC2=O (stereo partly drawn) [I-1335, PL3-Asp-Npg-B5-Asp-3COOHF-Ala-Ala-Phe-Leu-PyrS2-2F3MeF-BztA-Gln-NH2]	11 µM (≈ 22.6 µg/mL)	
CC(=O)N1CCC[C@]12CC=CCCCC1(CCCC=CCCCOC(=O)N3CC[C@@](C(=O)N[C@@H](Cc4ccccc4C(F)(F)F)C(=O)N[C@@H](Cc4csc5ccccc45)C(=O)N[C@H](CO)[C@@H](C)O)(C3)NC(=O)[C@H](CC(C)C)NC(=O)[C@H](Cc3ccccc3)NC(=O)[C@H](C)NC(=O)[C@H](C)NC(=O)[C@H](Cc3cccc(C(=O)O)c3)NC(=O)[C@H](CC(=O)O)NC1=O)NC(=O)[C@H](CC(C)(C)C)NC(=O)[C@H](CC(=O)O)NC2=O (stereo partly drawn) [I-1337, PL3-Asp-Npg-B5-Asp-3COOHF-Ala-Ala-Phe-Leu-PyrS2-2F3MeF-BztA-Thro1]		10 µM (≈ 20.2 µg/mL)

Reference: patent US20240116985A1, “STAPLED PEPTIDES AND METHODS THEREOF” (priority 2020, published 2024)
